Source: paper PMC8364686, “Safety, tolerability, pharmacokinetics and pharmacodynamics of single oral doses of BI 187004, an inhibitor of 11beta-hydroxysteroid dehydrogenase-1, in healthy male volunteers with overweight or obesity” (Clinical Diabetes and Endocrinology, 2021)
Where “and” joins values, the source holds several entries; their conditions need not be identical. Equal values may be shown once.

Test: Plasma pharmacokinetics of BI 187004 after single oral doses (LC–MS/MS)
Conditions: for BI 187004 plasma concentrations: individual subjects
[1] = male, human, plasma, po, 2.5 mg
[2] = male, human, plasma, po, 2.5 mg, Plasma concentration Mean, 2.5 mg single oral
[3] = male, human, plasma, po, 2.5 mg, Plasma concentration Median, 2.5 mg single oral
[4] = male, human, plasma, po, 2.5 mg, Plasma concentration gMean, 2.5 mg single oral

N#Cc1ccc2c(c1)[C@H]1CCCN(C(=O)c3ccc4[nH]cnc4c3)[C@H]1C2 [BI 187004]
Plasma concentration, individual subjects (2.5 mg single oral, planned time 0.5 h): BLQ (Below Limit of Quantification (<3.00 nmol/L)) and 5.84 nmol/L and 15.8 nmol/L and 8.84 nmol/L | Plasma concentration, individual subjects (2.5 mg single oral, planned time 1 h): BLQ (Below Limit of Quantification (<3.00 nmol/L)) and 6.77 nmol/L and 28.4 nmol/L and 17.6 nmol/L and 7.86 nmol/L and 5.64 nmol/L | Plasma concentration, individual subjects (2.5 mg single oral, planned time 1.5 h): BLQ (Below Limit of Quantification (<3.00 nmol/L)) and 6.06 nmol/L and 17.2 nmol/L and 14.9 nmol/L and 12.1 nmol/L and 5.62 nmol/L | Plasma concentration, individual subjects (2.5 mg single oral, planned time 2 h): BLQ (Below Limit of Quantification (<3.00 nmol/L)) and 4.97 nmol/L and 13.8 nmol/L and 11.0 nmol/L and 9.41 nmol/L and 4.67 nmol/L | Plasma concentration, individual subjects (2.5 mg single oral, planned time 2.5 h): BLQ (Below Limit of Quantification (<3.00 nmol/L)) and 4.45 nmol/L and 12.5 nmol/L and 10.1 nmol/L and 8.45 nmol/L | Plasma concentration, individual subjects (2.5 mg single oral, planned time 3 h): BLQ (Below Limit of Quantification (<3.00 nmol/L)) and 3.48 nmol/L and 11.9 nmol/L and 8.37 nmol/L and 6.66 nmol/L and 3.95 nmol/L | Plasma concentration, individual subjects (2.5 mg single oral, planned time 4 h): BLQ (Below Limit of Quantification (<3.00 nmol/L)) and 3.40 nmol/L and 10.7 nmol/L and 7.79 nmol/L and 6.03 nmol/L and 4.09 nmol/L | Plasma concentration, individual subjects (2.5 mg single oral, planned time 5 h): BLQ (Below Limit of Quantification (<3.00 nmol/L)) and 9.77 nmol/L and 7.70 nmol/L and 6.49 nmol/L and 3.91 nmol/L | Plasma concentration, individual subjects (2.5 mg single oral, planned time 6 h): BLQ (Below Limit of Quantification (<3.00 nmol/L)) and 7.52 nmol/L and 6.22 nmol/L and 5.34 nmol/L and 3.36 nmol/L | Plasma concentration, individual subjects (2.5 mg single oral, planned time 8 h): BLQ (Below Limit of Quantification (<3.00 nmol/L)) and 6.55 nmol/L and 5.06 nmol/L | Plasma concentration, individual subjects (2.5 mg single oral, planned time 10 h): BLQ (Below Limit of Quantification (<3.00 nmol/L)) and 5.19 nmol/L and 3.85 nmol/L and 3.08 nmol/L | Plasma concentration, individual subjects (2.5 mg single oral, planned time 12 h): BLQ (Below Limit of Quantification (<3.00 nmol/L)) and 4.76 nmol/L and 4.10 nmol/L and 3.34 nmol/L | Plasma concentration, individual subjects (2.5 mg single oral, planned time 24 h): BLQ (Below Limit of Quantification (<3.00 nmol/L)) and 6.66 nmol/L and 5.03 nmol/L and 3.69 nmol/L and 3.73 nmol/L | Plasma concentration, individual subjects (2.5 mg single oral, planned time 36 h): BLQ (Below Limit of Quantification (<3.00 nmol/L)) and 3.88 nmol/L | Plasma concentration, individual subjects (2.5 mg single oral, planned time 48 h): BLQ (Below Limit of Quantification (<3.00 nmol/L)) and 5.01 nmol/L and 4.22 nmol/L and 3.14 nmol/L | Plasma concentration, individual subjects (2.5 mg single oral, planned time 72 h): BLQ (Below Limit of Quantification (<3.00 nmol/L)) and 3.91 nmol/L | Plasma concentration, individual subjects (2.5 mg single oral, planned time 96 h): BLQ (Below Limit of Quantification (<3.00 nmol/L)) | Plasma concentration, individual subjects (2.5 mg single oral, planned time –0.5 h): BLQ (Below Limit of Quantification (<3.00 nmol/L)) | CL/F gMean (%gCV) (5 mg single oral dose): 5.82 (23.0) L/h | Plasma concentration, individual subjects (5 mg single oral, planned time 0.5 h): 17.6 nM and 16.1 nM | Plasma concentration, individual subjects (5 mg single oral, planned time 1 h): 139 nM and 113 nM | Plasma concentration, individual subjects (5 mg single oral, planned time 1.5 h): 137 nM and 105 nM | Plasma concentration, individual subjects (5 mg single oral, planned time 2 h): 125 nM and 89.1 nM | Plasma concentration, individual subjects (5 mg single oral, planned time 2.5 h): 113 nM and 99.4 nM | Plasma concentration, individual subjects (5 mg single oral, planned time 3 h): 104 nM and 89.4 nM | Plasma concentration, individual subjects (5 mg single oral, planned time 4 h): 97.2 nM and 80.1 nM | Plasma concentration, individual subjects (5 mg single oral, planned time 5 h): 88.2 nM and 69.3 nM | Plasma concentration, individual subjects (5 mg single oral, planned time 6 h): 74.1 nM and 59.0 nM and 90.2 nM | Plasma concentration, individual subjects (5 mg single oral, planned time 8 h): 67.1 nM and 53.5 nM and 81.4 nM | Plasma concentration, individual subjects (5 mg single oral, planned time 10 h): 63.2 nM and 54.2 nM and 38.5 nM and 58.5 nM | Plasma concentration, individual subjects (5 mg single oral, planned time 12 h): 54.1 nM and 51.5 nM and 32.5 nM | Plasma concentration, individual subjects (5 mg single oral, planned time 24 h): 30.9 nM and 21.5 nM | Plasma concentration, individual subjects (5 mg single oral, planned time 36 h): 19.4 nM and 14.0 nM and 9.68 nM | Plasma concentration, individual subjects (5 mg single oral, planned time 48 h): 20.9 nM and 11.6 nM and 10.6 nM | Plasma concentration, individual subjects (5 mg single oral, planned time 72 h): 12.4 nM and 5.72 nM and 5.44 nM | Plasma concentration, individual subjects (5 mg single oral, planned time 96 h): 7.71 nM and 4.37 nM and 3.26 nM | Plasma concentration, individual subjects (5 mg single oral, planned time –0.5 h): BLQ (Below Limit of Quantification (<3.00 nmol/L)) | CL/F gMean (%gCV) (10 mg single oral dose): 4.93 (29.2) L/h | Plasma concentration, individual subjects (10 mg single oral, planned time –0.5 h): BLQ (Below Limit of Quantification (<3.00 nmol/L)) | CL/F gMean (%gCV) (20 mg single oral dose): 4.70 (41.2) L/h | BI 187004 plasma concentrations (20 mg single oral, planned time 72 h): BLQ (Below Limit of Quantification (<3.00 nmol/L)) | BI 187004 plasma concentrations (20 mg single oral, planned time 96 h): BLQ (Below Limit of Quantification (<3.00 nmol/L)) | BI 187004 plasma concentrations (20 mg single oral, planned time –0.5 h): BLQ (Below Limit of Quantification (<3.00 nmol/L)) | CL/F gMean (%gCV) (40 mg single oral dose): 4.50 (36.1) L/h | BI 187004 plasma concentrations (40 mg single oral, planned time –0.5 h): BLQ (Below Limit of Quantification (<3.00 nmol/L)) | CL/F gMean (%gCV) (80 mg single oral dose): 4.56 (40.2) L/h | BI 187004 plasma concentrations (80 mg single oral, planned time –0.5 h): BLQ (Below Limit of Quantification (<3.00 nmol/L)) | CL/F gMean (%gCV) (160 mg single oral dose): 4.21 (19.5) L/h | BI 187004 plasma concentrations (160 mg single oral, planned time 96 h): BLQ (Below Limit of Quantification (<3.00 nmol/L)) | BI 187004 plasma concentrations (160 mg single oral, planned time –0.5 h): BLQ (Below Limit of Quantification (<3.00 nmol/L)) | Time to Cmax, single subject (subject 64) (240 mg): 24 h | CL/F gMean (%gCV) (240 mg single oral dose): 6.44 (53.4) L/h | BI 187004 plasma concentrations (240 mg single oral, planned time -0.5 h): BLQ (Below Limit of Quantification (<3.00 nmol/L)) | CL/F gMean (%gCV) (360 mg single oral dose): 5.48 (25.4) L/h | BI 187004 plasma concentrations (360 mg single oral, planned time –0.5 h): BLQ (Below Limit of Quantification (<3.00 nmol/L)) | Apparent clearance (CL/F), range across dose groups (5–360 mg): 4.21—6.44 L/h | concentration at 96 h (male, human, in vivo, po, 240 mg): 18.4 nM | Vd/F (male, human, plasma, oral): 87.9 to 281 L | concentration at 10 h (male, human, plasma, oral, 10 mg, Plasma C10 gMean (range), 10 mg single dose): 174 nM | concentration at 24 h (male, human, plasma, oral, 10 mg, Plasma C24 gMean (range), 10 mg single dose, 24 h): 71.3 nM | concentration at 10 h (male, human, plasma, oral, 20 mg, Plasma C10 gMean (range), 20 mg single dose): 382 nM | concentration at 24 h (male, human, plasma, oral, 20 mg, Plasma C24 gMean (range), 20 mg single dose, 24 h): 161 nM | concentration at 10 h (male, human, plasma, oral, 40 mg, Plasma C10 gMean (range), 40 mg single dose): 796 nM | concentration at 24 h (male, human, plasma, oral, 40 mg, Plasma C24 gMean (range), 40 mg single dose, 24 h): 321 nM | concentration at 10 h (male, human, plasma, oral, 80 mg, Plasma C10 gMean (range), 80 mg single dose): 1530 nM | concentration at 24 h (male, human, plasma, oral, 80 mg, Plasma C24 gMean (range), 80 mg single dose, 24 h): 878 nM | concentration at 10 h (male, human, plasma, oral, 160 mg, Plasma C10 gMean (range), 160 mg single dose): 3000 nM | concentration at 24 h (male, human, plasma, oral, 160 mg, Plasma C24 gMean (range), 160 mg single dose, 24 h): 1630 nM | concentration at 10 h (male, human, plasma, oral, 240 mg, Plasma C10 gMean (range), 240 mg single dose): 2600 nM | concentration at 24 h (male, human, plasma, oral, 240 mg, Plasma C24 gMean (range), 240 mg single dose, 24 h): 2130 nM | concentration at 10 h (male, human, plasma, oral, 360 mg, Plasma C10 gMean (range), 360 mg single dose): 5300 nM | concentration at 24 h (male, human, plasma, oral, 360 mg, Plasma C24 gMean (range), 360 mg single dose, 24 h): 2690 nM | Tmax (male, human, plasma, po): 1 to 1.5 h | AUC(0-t) [1]: 0.212 µM·h | Cmax [1]: 11.8 nM | Tmax [1]: 1 h | concentration at 24 h (male, human, plasma, po, 2.5 mg, C24 gMean (%gCV), 2.5 mg single oral dose): 4.54 nM | concentration at 1 h [2]: 13.3 nM | concentration at 1.5 h [2]: 11.2 nM | concentration at 2 h [2]: 8.77 nM | concentration at 2.5 h [2]: 7.99 nM | concentration at 3 h [2]: 6.87 nM | concentration at 4 h [2]: 6.4 nM | concentration at 5 h [2]: 6.97 nM | concentration at 6 h [2]: 5.61 nM | concentration at 10 h [2]: 4.53 nM | concentration at 12 h [2]: 4.66 nM | concentration at 24 h (male, human, plasma, po, 2.5 mg, Plasma concentration Mean, 2.5 mg single oral, 24 h): 4.66 nM | concentration at 48 h [2]: 3.99 nM | concentration at 1 h [3]: 7.86 nM | concentration at 1.5 h [3]: 12.1 nM | concentration at 2 h [3]: 9.41 nM | concentration at 2.5 h [3]: 8.45 nM | concentration at 3 h [3]: 6.66 nM | concentration at 4 h [3]: 6.03 nM | concentration at 5 h [3]: 7.1 nM | concentration at 6 h [3]: 5.78 nM | concentration at 10 h [3]: 4.52 nM | concentration at 12 h [3]: 4.43 nM | concentration at 24 h (male, human, plasma, po, 2.5 mg, Plasma concentration Median, 2.5 mg single oral, 24 h): 4.19 nM | concentration at 48 h [3]: 3.9 nM | concentration at 1 h [4]: 10.8 nM | concentration at 1.5 h [4]: 10.1 nM | concentration at 2 h [4]: 8.02 nM
